How the values were obtained:
[1] = target: T1, vitamin D serum binding protein (DBP) (Rattus norvegicus, UniProt P04276); test: affinity for vitamin D serum binding protein in vitamin D deficient rat serum
T1 sequence (P04276 17-476): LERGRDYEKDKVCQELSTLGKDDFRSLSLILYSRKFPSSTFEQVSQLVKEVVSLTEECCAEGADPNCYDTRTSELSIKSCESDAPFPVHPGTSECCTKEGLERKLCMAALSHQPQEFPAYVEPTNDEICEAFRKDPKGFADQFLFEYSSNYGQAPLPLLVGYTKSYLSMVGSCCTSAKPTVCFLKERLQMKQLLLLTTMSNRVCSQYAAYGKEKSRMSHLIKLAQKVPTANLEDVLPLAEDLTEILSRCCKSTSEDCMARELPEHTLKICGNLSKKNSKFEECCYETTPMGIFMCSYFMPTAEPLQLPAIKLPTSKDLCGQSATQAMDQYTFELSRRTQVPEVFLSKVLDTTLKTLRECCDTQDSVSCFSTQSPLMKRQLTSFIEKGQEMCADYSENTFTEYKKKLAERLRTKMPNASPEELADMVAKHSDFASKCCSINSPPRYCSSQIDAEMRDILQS
Text: In addition, the weak binding by the DBP was indicative of more rapid clearance, allowing for low toxicity.

[2] = test system: postmenopausal osteoporotic women; test: dose ranging study in postmenopausal osteoporotic women; type: in vivo, human; conditions: oral 0.5 to 8.0 μg/day escalating over five weeks
Procedure: Twenty postmenopausal osteoporotic women are enrolled in an open label study.
On admission to the study, all patients receive instruction on selecting a daily diet containing 400 to 600 mg of calcium. Compliance to this diet is verified at weekly intervals by 24-hour food records and by interviews with each patient.
All patients complete a one-week baseline period, a five-week treatment period, and a one-week post-treatment observation period. During the treatment period, patients orally self-administer 1α,24(S)-dihydroxyvitamin D2 at an initial dose of 0.5 μg/day for the first week, and at successively higher doses of 1.0, 2.0, 4.0, and 8.0 μg/day in each of the following four weeks. All doses are administered before breakfast.
Blood and urine chemistries are monitored on a weekly basis throughout the study. Key blood chemistries include fasting serum levels of calcium, phosphorus, osteocalcin, creatinine, and blood urea nitrogen. Key urine chemistries include 24-hour excretion of calcium, phosphorus, and creatinine.

[3] = test system: dermatitis (contact and ectopic) patients; test: dermatological testing, topical treatment of dermatitis; type: in vivo, human; conditions: ointment 10 μg per gram, twice daily, four to six weeks
Procedure: Compositions containing 1α,24(S)-dihydroxy vitamin D2 are evaluated for therapeutic efficacy of the composition in the topical treatment of dermatitis (contact and ectopic). The composition evaluated is an ointment containing 10 μg of 1α,24-dihydroxy vitamin D2 per gram of ointment in a petrolatum-almond oil base. […] The patients are treated in an out-patient clinic. They are instructed to use the preparation two times a day.
The ointment is as far as possible applied to a single lesion, or to an area of the disease. The ointment and its container are weighed before the treatment starts and returned with any unused contents for reweighing at the end of the treatment.
The area of the lesion treated is estimated and recorded, and the lesion is photographed as required, together with suitable "control" lesions. The latter are preferably lesions of similar size and stage of development, either in the vicinity of the treated lesion or symmetrically contralateral. Relevant details of the photographic procedure are recorded so as to be reproduced when the lesions are next photographed (distance, aperture, angle, background, etc.). The ointment is applied twice daily and preferably left uncovered. The "control" lesions are left untreated, but if this is not possible, the treatment used on them is noted. […]

binding affinity for the vitamin D serum binding protein [1]: relatively poor binding affinity
binding to the vitamin D serum binding protein relative to 1,25-(OH)2 D3 [1]: more weakly than does 1,25-(OH)2 D3
Structure (SMILES): C=C1/C(=C\C=C2/CCC[C@]3(C)[C@@H]([C@H](C)/C=C/[C@@](C)(O)C(C)C)CC[C@@H]23)C[C@@H](O)C[C@@H]1O [1α,24(S)-(OH)2 D2, 1α,24(S)-dihydroxy vitamin D2]
24-hour urinary calcium levels [2]: modest increases in 24-hour urinary calcium levels
routinely monitored serum parameters [2]: no effect on any routinely monitored serum parameters
serum osteocalcin levels [2]: increases in serum osteocalcin levels
urinary excretion of hydroxyproline [2]: nor does it increase urinary excretion of hydroxyproline
lesion severity score (erythema, scaling, thickness; 0 to 3) [3]: lower scores than the control lesions

— US6211168A, “Methods for preparation and use of 1α,24 (S)-dihydroxy vitamin D2” (Bone Care International, Inc, priority 1995, dated 2001)
